Results as given in article PMC12589708, “Structural determinants for red‐shifted absorption in higher‐plants Photosystem I” (The New Phytologist, 2025).

Experiments:
Assay in all cases: cryo-EM structure
Assay type in all cases: binding
Lhca1‐Lhca4 = molecular target: T1, Lhca1‐Lhca4 (Arabidopsis thaliana, UniProt P27521+Q01667); details: PSI-LHCI supercomplex, 3.13 A; Lhca1/Lhca4 interface near Chl a615, hydrogen bond to Lhca1 Ser210
T1 construct: heterodimer within native PSI-LHCI supercomplex purified from leaves; ligand at the subunit interface
T1 sequence (Q01667 36-241): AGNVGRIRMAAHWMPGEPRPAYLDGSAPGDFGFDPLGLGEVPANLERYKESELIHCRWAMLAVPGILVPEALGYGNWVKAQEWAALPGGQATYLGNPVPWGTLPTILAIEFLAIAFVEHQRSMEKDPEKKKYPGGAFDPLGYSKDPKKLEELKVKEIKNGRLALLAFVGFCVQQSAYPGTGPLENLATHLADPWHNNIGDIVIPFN
T1 sequence (P27521 53-251): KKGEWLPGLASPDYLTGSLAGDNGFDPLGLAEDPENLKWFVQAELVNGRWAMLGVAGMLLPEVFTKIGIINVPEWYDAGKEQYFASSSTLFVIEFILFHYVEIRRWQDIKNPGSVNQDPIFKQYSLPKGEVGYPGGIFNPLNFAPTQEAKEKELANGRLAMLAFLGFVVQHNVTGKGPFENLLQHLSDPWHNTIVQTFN

Lhca1 = molecular target: T2, Lhca1 (Arabidopsis thaliana, UniProt Q01667); details: PSI-LHCI supercomplex, 3.13 A; site L2
T2 construct: native LHCI antenna subunit within PSI-LHCI supercomplex purified from leaves (beta-DM, sucrose gradient)
T2 sequence (Q01667 36-241): T1 sequence (Q01667 36-241)

Lhca2 = molecular target: T3, Lhca2 (Arabidopsis thaliana, UniProt Q9SYW8); details: PSI-LHCI supercomplex, 3.13 A; site L2
T3 construct: native LHCI antenna subunit within PSI-LHCI supercomplex purified from leaves (beta-DM, sucrose gradient)
T3 sequence (Q9SYW8 44-257): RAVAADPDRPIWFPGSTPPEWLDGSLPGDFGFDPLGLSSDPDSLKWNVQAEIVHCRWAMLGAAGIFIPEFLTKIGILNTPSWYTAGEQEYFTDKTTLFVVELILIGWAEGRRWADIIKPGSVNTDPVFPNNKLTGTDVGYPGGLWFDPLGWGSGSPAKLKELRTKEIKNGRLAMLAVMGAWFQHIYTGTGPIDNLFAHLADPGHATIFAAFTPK

SMILES: CC1=C[C@H](O)CC(C)(C)[C@H]1/C=C/C(C)=C/C=C/C(C)=C/C=C/C=C(C)/C=C/C=C(C)/C=C/C1=C(C)C[C@@H](O)CC1(C)C [lutein]
- cryo-EM structure (Lhca1‐Lhca4): The Lut was situated at the interface between Lhca1 and Lhca4

SMILES: CC(/C=C/C=C(C)/C=C/[C@@]12O[C@]1(C)C[C@@H](O)CC2(C)C)=C\C=C\C=C(C)\C=C\C=C(C)\C=C\[C@@]12O[C@]1(C)C[C@@H](O)CC2(C)C [violaxanthin]
- cryo-EM structure (Lhca1): Chl a603–Vio L2 coupling were significantly higher for Lhca3 and Lhca4 than for Lhca1
- cryo-EM structure (Lhca2): significantly higher for Lhca3 and Lhca4 than for Lhca1 and Lhca2
